In the NIST ThermoML archive (doi:10.1016/j.jct.2013.09.024):
Numbers after ± are expanded uncertainties.

Test: xn = mol fraction of the nth substance listed
Conditions: Liquid, Vibrating tube method

CC1(C)C(=O)[C@]2(C)CC[C@H]1C2 [(-)-fenchone] + CCO
mass density [kg/m3]
Conditions	101 kPa	20000 kPa	25000 kPa	30000 kPa	35000 kPa	40000 kPa
283.15 K, x1 = 0.0481	817.48 ± 0.15	–	–	–	–	–
283.15 K, x1 = 0.051	–	833.5 ± 1	837 ± 1	840.3 ± 1	843.4 ± 1	846.5 ± 1.1
283.15 K, x1 = 0.0985	834.96 ± 0.13	–	–	–	–	–
283.15 K, x1 = 0.0992	–	849.7 ± 1	853.1 ± 1	856.3 ± 1	859.4 ± 1	862.5 ± 1
283.15 K, x1 = 0.199	–	876.6 ± 1	879.9 ± 1	883 ± 1	886 ± 1	889 ± 1
283.15 K, x1 = 0.2002	862.89 ± 0.13	–	–	–	–	–
283.15 K, x1 = 0.3002	883.74 ± 0.12	–	–	–	–	–
283.15 K, x1 = 0.301	–	897.5 ± 1	900.6 ± 1	903.7 ± 1	906.6 ± 1	909.5 ± 1
283.15 K, x1 = 0.3968	–	913 ± 1	916.1 ± 1	919.1 ± 1	922 ± 1	924.8 ± 1
283.15 K, x1 = 0.4031	900.59 ± 0.11	–	–	–	–	–
283.15 K, x1 = 0.4976	–	926.2 ± 1	929.2 ± 1	932.2 ± 1	935 ± 1	937.8 ± 1
283.15 K, x1 = 0.5012	913.56 ± 0.11	–	–	–	–	–
283.15 K, x1 = 0.5924	–	936.5 ± 1	939.4 ± 1	942.3 ± 1	945.2 ± 1	947.9 ± 1
283.15 K, x1 = 0.5976	924.09 ± 0.11	–	–	–	–	–
283.15 K, x1 = 0.6956	–	945.8 ± 1	948.7 ± 1	951.6 ± 1	954.4 ± 1	957.1 ± 1
283.15 K, x1 = 0.697	933.16 ± 0.11	–	–	–	–	–
283.15 K, x1 = 0.7897	940.31 ± 0.11	–	–	–	–	–
283.15 K, x1 = 0.7942	–	953.4 ± 1	956.3 ± 1	959.1 ± 1	961.9 ± 1	964.6 ± 1
283.15 K, x1 = 0.8929	–	959.7 ± 1	962.6 ± 1	965.5 ± 1	968.2 ± 1	970.9 ± 1
283.15 K, x1 = 0.899	947.57 ± 0.12	–	–	–	–	–
283.15 K, x1 = 0.9454	–	962.8 ± 1	965.7 ± 1	968.5 ± 1	971.2 ± 1	973.8 ± 1
283.15 K, x1 = 0.9486	950.46 ± 0.12	–	–	–	–	–
283.15 K, x1 = 1	953.27 ± 0.12	965.6 ± 1	968.5 ± 1	971.3 ± 1	974 ± 1	976.6 ± 1
298.15 K, x1 = 0.0481	804.6 ± 0.15	–	–	–	–	–
298.15 K, x1 = 0.051	–	822 ± 1	825.6 ± 1	829.1 ± 1	832.5 ± 1.1	835.7 ± 1.1
298.15 K, x1 = 0.0985	822.02 ± 0.14	–	–	–	–	–
298.15 K, x1 = 0.0992	–	838 ± 1	841.6 ± 1	845 ± 1	848.3 ± 1	851.5 ± 1
298.15 K, x1 = 0.199	–	864.9 ± 1	868.3 ± 1	871.7 ± 1	874.8 ± 1	877.9 ± 1
298.15 K, x1 = 0.2002	849.9 ± 0.13	–	–	–	–	–
298.15 K, x1 = 0.3002	870.72 ± 0.12	–	–	–	–	–
298.15 K, x1 = 0.301	–	885.7 ± 1	889.1 ± 1	892.3 ± 1	895.4 ± 1	898.4 ± 1
298.15 K, x1 = 0.3968	–	901.1 ± 1	904.4 ± 1	907.6 ± 1	910.6 ± 1	913.6 ± 1
298.15 K, x1 = 0.4031	887.59 ± 0.12	–	–	–	–	–
298.15 K, x1 = 0.4976	–	914.3 ± 1	917.6 ± 1	920.7 ± 1	923.7 ± 1	926.7 ± 1
298.15 K, x1 = 0.5012	900.59 ± 0.11	–	–	–	–	–
298.15 K, x1 = 0.5924	–	924.6 ± 1	927.8 ± 1	930.9 ± 1	933.9 ± 1	936.7 ± 1
298.15 K, x1 = 0.5976	911.15 ± 0.11	–	–	–	–	–
298.15 K, x1 = 0.6956	–	934 ± 1	937.1 ± 1	940.2 ± 1	943.2 ± 1	946 ± 1
298.15 K, x1 = 0.697	920.28 ± 0.11	–	–	–	–	–
298.15 K, x1 = 0.7897	927.48 ± 0.12	–	–	–	–	–
298.15 K, x1 = 0.7942	–	941.6 ± 1	944.7 ± 1	947.7 ± 1	950.6 ± 1	953.5 ± 1
298.15 K, x1 = 0.8929	–	948.1 ± 1	951.1 ± 1	954.1 ± 1	957 ± 1	959.8 ± 1
298.15 K, x1 = 0.899	934.83 ± 0.12	–	–	–	–	–
298.15 K, x1 = 0.9454	–	951.2 ± 1	954.2 ± 1	957.2 ± 1	960.1 ± 1	962.9 ± 1
298.15 K, x1 = 0.9486	937.77 ± 0.12	–	–	–	–	–
298.15 K, x1 = 1	940.67 ± 0.12	954 ± 1	957.1 ± 1	960 ± 1	962.9 ± 1	965.7 ± 1
